Data on one compound can be found in publication PMC3673949, “Small Molecule R1498 as a Well-Tolerated and Orally Active Kinase Inhibitor for Hepatocellular Carcinoma and Gastric Cancer Treatment via Targeting Angiogenesis and Mitosis Pathways” (PLoS ONE, 2013).

Data set [1] relates to 402 kinases. The experiment in a line: KINOMEScan kinase affinity profiling. The format is binding. To be noted: 1 µM, ATP around Km of each kinase; 359 wild-type kinases and 43 mutants. The method, then: The affinity of R1498 against 402 kinases was determined by KINOMEScan® (Ambit Biosciences, San Diego, CA) and data were presented as dissociation constant (Kd) values. The inhibition on kinase activity of Aurora kinases and VEGFR2 was further characterized by Z’-Lyte kinase activity assays under corresponding ATP concentrations.

The test system of data set [2] is BEL-7404 xenograft. The experiment in a line: Xenograft efficacy study. Type of data set: in vivo, BALB/C nu/nu nude mice.
Method: (§1) Tumor cells were inoculated into the right flank of BALB/C nu/nu female nude mice (5∼6 weeks, 16∼18 g, obtained from Sino-British SIPPR/BK Lab. Animal Ltd, Shanghai, China) at optimal density based on our in-house validation study. After the tumor was established and reached 100∼150 mm^3, the mice were randomized into ten mice per group and received treatment according to the schedule. The tumor growth was recorded three times a week with the measurement of length (L) and width (W) by caliper, and calculated as tumor volume (TV, mm^3) = 0.5*L*W*W (mm). […] The tumor regression of individual mouse was defined - the tumor volume at the end was less than the tumor volume when treatment was initiated.
For data set [3], the system named is HUVEC. The experiment in a line: HUVEC tube formation assay. The format is cell-based, human.
The subject of data set [4] is MGC-803 xenograft. The experiment in a line: Xenograft efficacy study. Type of data set: in vivo, BALB/C nu/nu nude mice. To be noted: MGC-803, 25 mg/kg twice a day per oral gavage.
Method: as §1

As for `COc1ccc2c(c1)C(c1ccccc1Cl)=Nc1c(n[nH]c1C)N2` [R1498], the “number of kinases with inhibition rate over 80% out of 402 kinases” value in data set [1] worked out at 39. For the same compound, the “Final TGI%” value was 90% in data set [2] (BEL-7404, 12.5 mg/kg twice a day per oral gavage, day of study termination (Table S2)); 47% in data set [2] (BEL-7404, 3.125 mpk, bid, PO); 67% in data set [2] (BEL-7404, 6.25 mpk, bid, PO); 99% in data set [4] (day of study termination). In addition, the Body weight changes% in data set [2] (BEL-7404, 12.5 mg/kg twice a day per oral gavage, before vs after treatment) is listed as -1.9%; in data set [4] (before vs after treatment) it was 14%. For the same compound, the “Tumor Regression” value was 0/10 in data set [2] (BEL-7404, 12.5 mg/kg twice a day per oral gavage, mice with regression/group) and 5/10 in data set [4] (mice with regression/group). Also, the “HUVEC proliferation under tube formation treatment condition” value in data set [3] (8 hr exposure, data not shown) is listed as “didn’t affect HUVEC proliferation”. In addition, the tube formation entry in data set [3] (HUVEC on Matrigel, 3 µM, 8 h, vs DMSO) was “formed fewer intact tube meshes”.
